Earlier results in patent publication US7105170B2, “Latent human tuberculosis model, diagnostic antigens, and methods of use” (The United States of America as represented by the …, priority 2001, dated 2006).

Test system: M. tuberculosis bacilli
Conditions: non-replicating persistent lower oxygen state (NRP2)

| Structure (SMILES) | alterations in drug susceptibility |
| --- | --- |
| O=C(O)c1cn(C2CC2)c2cc(N3CCNCC3)c(F)cc2c1=O [ciprofloxicin] | resistant |
| Cc1ncc([N+](=O)[O-])n1CCO [metronidazole] | sensitive |
